Assay results from article PMC7010297, “How the initiating ribosome copes with ppGpp to translate mRNAs” (PLoS Biology, 2020).
“And” between values parts separate entries of the source, which are not always exact repeats. Equal entries are not always repeated.

Assays:
[1] = biological target: T1, 70S pre-IC (50S joining to 30S IC) (Escherichia coli, UniProt P0A705); test: 70S pre-IC formation by light scattering, stopped-flow; type: biochemical; parameters: K1, best-fit value / k2, best-fit value: unit not given here; details: for kfast (s-1) Avg: light scattering
T1 construct: 6xHis (N); made in house
T1 sequence (P0A705 whole entry, looked up): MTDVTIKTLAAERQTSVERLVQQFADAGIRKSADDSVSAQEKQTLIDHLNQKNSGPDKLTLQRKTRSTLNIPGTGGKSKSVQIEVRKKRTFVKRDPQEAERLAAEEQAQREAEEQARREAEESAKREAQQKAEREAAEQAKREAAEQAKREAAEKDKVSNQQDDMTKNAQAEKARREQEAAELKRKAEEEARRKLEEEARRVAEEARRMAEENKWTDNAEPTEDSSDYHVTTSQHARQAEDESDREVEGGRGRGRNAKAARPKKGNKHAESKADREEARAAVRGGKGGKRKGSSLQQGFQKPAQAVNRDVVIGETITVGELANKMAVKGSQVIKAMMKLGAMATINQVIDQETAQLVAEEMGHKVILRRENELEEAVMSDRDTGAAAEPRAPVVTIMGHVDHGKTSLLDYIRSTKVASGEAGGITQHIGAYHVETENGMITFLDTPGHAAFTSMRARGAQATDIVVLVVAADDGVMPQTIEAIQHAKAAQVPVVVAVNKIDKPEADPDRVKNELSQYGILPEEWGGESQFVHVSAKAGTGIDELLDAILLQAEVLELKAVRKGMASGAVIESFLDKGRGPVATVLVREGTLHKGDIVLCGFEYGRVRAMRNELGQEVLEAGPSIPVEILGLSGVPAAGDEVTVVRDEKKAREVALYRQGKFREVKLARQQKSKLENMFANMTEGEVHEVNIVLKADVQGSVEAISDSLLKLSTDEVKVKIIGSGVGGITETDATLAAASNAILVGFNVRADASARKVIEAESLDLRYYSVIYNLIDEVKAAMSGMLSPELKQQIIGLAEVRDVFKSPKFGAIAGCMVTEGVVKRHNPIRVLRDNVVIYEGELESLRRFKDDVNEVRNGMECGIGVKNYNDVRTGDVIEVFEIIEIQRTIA
Description: Continuous lines indicate nonlinear regression fittings with a quadratic equation. Three measurements were performed; mean and standard deviation are plotted (S1 Data). (B) as (A) to measure the concentration dependence for each tested guanosine nucleotide at constant IF2 (1 μM). […] Continuous lines show best fits using exponential functions. (D) Formation of 70S IC as measured by Bpy-tRNAi accommodation in the P site of the ribosome; 0.1 μM 30S ICs were formed with Bpy-tRNAi and rapidly mixed with 0.3 μM 50S subunits on a stopped-flow apparatus as described in [14]. Colors are as in (C). Continuous lines show best fits using an exponential function for a single reaction step. Each stopped-flow trace results from the mean of 5 to 7 replicates.
(A) Scheme of 70S IC formation. […] Time traces were analyzed by nonlinear regression with exponential terms. […] Formation of 70S IC, as measured by Bpy-tRNAi accommodation in the absence (F) or presence of 200 μM ppGpp (G). Time traces were analyzed by nonlinear regression with one exponential term. […] Continuous lines show best fits using an exponential function for a single reaction step. All time traces are mean values of 5 to 10 replicates. Bar graphs show mean and standard errors (error bars) derived from the nonlinear regression fitting (D,E,H,I) (S1 Data).
To measure 70S pre-IC formation, a SX-20 stopped-flow instrument (Applied Photophysics, Leatherhead, UK) was set up for LS recording with an excitation wavelength of 430 nm. Scattered light was measured at an angle of 90° without a filter. Pseudo first-order conditions were approximated by using ≥3-fold excess of 50S subunits over 30S ICs; 0.2 μM 30S ICs were rapidly mixed in the instrument with 0.6 μM 50S at 25 °C. Bpy-tRNAi accommodation was measured essentially as described elsewhere. Briefly, 0.2 μM 30S ICs were formed using Bpy-tRNAi and rapidly mixed with 0.6 μM 50S at 25 °C. Fluorescence was excited at 470 nm and measured after a 495-nm longpass filter. Individual traces (6–11 traces) were averaged, and the resulting kinetic curve was approximated by single (F = A0 + A1*exp (-kapp1*t)) or double (F = A0 + A1*exp (-kapp1*t) + A2*exp (-kapp2*t)) exponential fit using Graphpad Prism 6.0 software (GraphPad, San Diego, California).

[2] = biological target: T2, IF2 (Escherichia coli, UniProt P0A705); test: IF2-Bpy-tRNAi-GNP ternary complex formation by MST; type: binding; details: S2A Fig
T2 construct: 6xHis (N); made in house
T2 sequence (P0A705 whole entry): as the sequence (P0A705 whole entry, looked up) above
Description: Supplementary file pbio.3000593.s002.pdf: S2 Fig IF2-Bpy-tRNAi complex formation as a function of guanosine nucleotides. (A) IF2 concentration dependencies for Bpy-tRNAi binding in the presence of 0.5 mM of the indicated guanosine nucleotides to build IF2-tRNA-GNP ternary complexes (TCs). […] Three to five measurements were performed; mean and standard deviation are plotted (S1 Data). […] (PDF) Click here for additional data file.

[3] = biological target: T3, 30S-bound IF2 (30S IC) (Escherichia coli, UniProt P0A705); test: ppGpp (or GDP) to GTP competitive assay for 30S IC formation by MST; type: binding; details: S4G Fig
T3 construct: 6xHis (N); made in house
Description: MST was calculated from the respective fluorescence time dependencies (S3 Fig). […] Symbols as in (B). […] Continuous lines indicate nonlinear regression fittings with quadratic (B and E) or same-site competition (G) functions. Three measurements were performed; mean and standard deviations are plotted (S1 Data).
[…] Symbols are as indicated, 3 measurements were performed, and mean and standard deviation are plotted (S1 Data). Continuous lines show nonlinear regression fittings with a same-site inhibition model. […] (PDF) Click here for additional data file.

[4] = mInfA, fit Y=A0+A1*exp(-K1*x)+k2*x
[5] = mMF1, fit Y=A0+A1*exp(-K1*x)+k2*x
[6] = mTufA, fit Y=A0+A1*exp(-K1*x)+k2*x

Q: For `Nc1nc2c(ncn2[C@@H]2O[C@H](COP(=O)(O)OP(=O)(O)OP(=O)(O)O)[C@@H](O)[C@H]2O)c(=O)[nH]1` [GTP, guanosine triphosphate], which “kapp of 70S pre-IC formation (LS)” value ([1]; 30S complexes formed with 0.2 mM nucleotide, mixed with 50S subunits) is on record?
A: 2.9 ± 0.3 s^–1

Q: And the “A0, best-fit value” [1, 4]?
A: 1.08

Q: What about the “K1, best-fit value” [1, 4] of the same molecule?
A: 1.97

Q: What about the “k2, best-fit value” [1, 4] of the same molecule?
A: 0.0017 and 0.00173

Q: What about the “A0, best-fit value” [1, 5] of the same molecule?
A: 1.05

Q: And the “A1, best-fit value” [1, 5]?
A: -0.035

Q: And the “K1, best-fit value” [1, 5]?
A: 1.98

Q: And the “k2, best-fit value” [1, 5]?
A: 0.000317

Q: What about the “LS amplitude (a.u.) Avg” value ([1]; mRNA mInfA) of the same molecule?
A: 0.062 a.u.

Q: And the “LS amplitude (a.u.) Avg” value ([1]; mRNA mMF1)?
A: 0.035 a.u.

Q: And the “kfast (s-1) Avg” value ([1]; mRNA mMF1)?
A: 1.98 s⁻¹

Q: What about the “LS amplitude (a.u.) Avg” value ([1]; mRNA mTufA) of the same molecule?
A: 0.083 a.u.

Q: And the “kfast (s-1) Avg” value ([1]; mRNA mTufA)?
A: 5.20 s⁻¹

Q: And the “A0, best-fit value” [1, 6]?
A: 1.11

Q: And the “K1, best-fit value” [1, 6]?
A: 5.20

Q: What about the “k2, best-fit value” [1, 6] of the same molecule?
A: 0.000653

Q: What about the “MST Average” value ([2]; IF2 0.08 µM) of the same molecule?
A: 945.53 a.u.

Q: And the “MST Replicates” value ([2]; IF2 0.08 µM)?
A: 952.20 a.u. and 948.28 a.u. and 936.11 a.u.

Q: What about the “MST Average” value ([2]; IF2 0.16 µM) of the same molecule?
A: 947.39 a.u.

Q: What about the “MST Replicates” value ([2]; IF2 0.16 µM) of the same molecule?
A: 938.55 a.u. and 949.51 a.u. and 954.10 a.u.

Q: What about the “MST Average” value ([2]; IF2 0.31 µM) of the same molecule?
A: 948.97 a.u.

Q: And the “MST Replicates” value ([2]; IF2 0.31 µM)?
A: 951.38 a.u. and 955.20 a.u. and 940.31 a.u.

Q: What about the “MST Average” value ([2]; IF2 0.63 µM) of the same molecule?
A: 950.03 a.u.

Q: What about the “MST Replicates” value ([2]; IF2 0.63 µM) of the same molecule?
A: 955.50 a.u. and 952.44 a.u. and 942.15 a.u.

Q: What about the “MST Average” value ([2]; IF2 2.50 µM) of the same molecule?
A: 955.81 a.u.

Q: What about the “MST Replicates” value ([2]; IF2 2.50 µM) of the same molecule?
A: 960.19 a.u. and 957.37 a.u. and 949.88 a.u.

Q: What about the “MST Average” value ([2]; IF2 5.00 µM) of the same molecule?
A: 963.92 a.u.

Q: What about the “MST Replicates” value ([2]; IF2 5.00 µM) of the same molecule?
A: 963.66 a.u. and 965.85 a.u. and 962.23 a.u.

Q: And the “MST Average” value ([2]; IF2 10.00 µM)?
A: 973.12 a.u.

Q: What about the “MST Replicates” value ([2]; IF2 10.00 µM) of the same molecule?
A: 974.68 a.u. and 972.27 a.u. and 972.40 a.u.

Q: And the “MST Average” value ([2]; IF2 20.00 µM)?
A: 982.93 a.u.

Q: And the “MST Replicates” value ([2]; IF2 20.00 µM)?
A: 983.50 a.u. and 982.36 a.u.

Q: What about the “MST Average” value ([2]; IF2 40.00 µM) of the same molecule?
A: 989.70 a.u.

Q: What about the “MST Replicates” value ([2]; IF2 40.00 µM) of the same molecule?
A: 993.21 a.u. and 991.95 a.u. and 983.94 a.u.

B1: mTufA: TufA mRNA with full-length 5′ UTR, in vitro transcribed, codes for EF-Tu (nucleic acid)
chain: GGUUCUAUCGCCUUUAAAGAAGGCUUUAAGAAAGCGAAACCAGUUCUGCUUGAGCCGAUCAUGAAGGUUGAAGUAGAAACUCCGGAAGAGAACACCGGUGACGUUAUCGGUGACUUGAGCCGUCGUCGUGGUAUGCUCAAAGGUCAGGAAUCUGAAGUUACUGGCGUUAAGAUCCACGCUGAAGUACCGCUGUCUGAAAUGUUCGGAUACGCAACUCAGCUGCGUUCUCUGACCAAAGGUCGUGCAUCAUACACUAUGGAAUUCCUGAAGUAUGAUGAAGCGCCGAGUAACGUUGCUCAGGCCGUAAUUGAAGCCCGUGGUAAAUAAGCCUAAGGGUUAAUACCAAAGUCCCGUGCUCUCUCCUGAAGGGGAGAGCACUAUAGUAAGGAAUAUAGCCGUGUCUAAAGAAAAAUUUGAACG
Q: With B1 as the molecule, how does the “MST Avg” value ([3]; Log [GDP] 0.29) read?
A: 1108.89 a.u.

Q: What about the “MST Replicates” value ([3]; Log [GDP] 0.29) of the same molecule?
A: 1106.67 a.u. and 1109.49 a.u. and 1110.53 a.u.

Q: And the “MST Avg” value ([3]; Log [GDP] 0.59)?
A: 1108.25 a.u.

Q: What about the “MST Replicates” value ([3]; Log [GDP] 0.59) of the same molecule?
A: 1104.73 a.u. and 1108.81 a.u. and 1111.20 a.u.

Q: What about the “MST Avg” value ([3]; Log [GDP] 0.89) of the same molecule?
A: 1106.94 a.u.

Q: And the “MST Replicates” value ([3]; Log [GDP] 0.89)?
A: 1105.25 a.u. and 1107.28 a.u. and 1108.30 a.u.

Q: What about the “MST Avg” value ([3]; Log [GDP] 1.19) of the same molecule?
A: 1104.11 a.u.

Q: What about the “MST Replicates” value ([3]; Log [GDP] 1.19) of the same molecule?
A: 1101.85 a.u. and 1104.36 a.u. and 1106.13 a.u.

Q: And the “MST Avg” value ([3]; Log [GDP] 1.49)?
A: 1094.23 a.u.

Q: What about the “MST Replicates” value ([3]; Log [GDP] 1.49) of the same molecule?
A: 1091.94 a.u. and 1094.86 a.u. and 1095.88 a.u.

Q: And the “MST Avg” value ([3]; Log [GDP] 1.80)?
A: 1077.93 a.u.

Q: And the “MST Replicates” value ([3]; Log [GDP] 1.80)?
A: 1075.66 a.u. and 1079.00 a.u. and 1079.14 a.u.

Q: And the “MST Avg” value ([3]; Log [GDP] 2.10)?
A: 1056.10 a.u.

Q: What about the “MST Replicates” value ([3]; Log [GDP] 2.10) of the same molecule?
A: 1053.33 a.u. and 1057.00 a.u. and 1057.97 a.u.

Q: What about the “MST Avg” value ([3]; Log [GDP] 2.40) of the same molecule?
A: 1017.56 a.u.

Q: And the “MST Replicates” value ([3]; Log [GDP] 2.40)?
A: 1014.74 a.u. and 1018.61 a.u. and 1019.33 a.u.

Q: What about the “MST Avg” value ([3]; Log [GDP] 2.70) of the same molecule?
A: 975.78 a.u.

Q: What about the “MST Replicates” value ([3]; Log [GDP] 2.70) of the same molecule?
A: 973.53 a.u. and 976.74 a.u. and 977.08 a.u.
